Experimental data published in US8227618B2, “Amine-derivatives having NPY Y5 receptor antagonistic activity and the uses thereof” (Shionogi & Co., Ltd., priority 2009, dated 2012).

How the values were obtained:
P-gp = biological target: T1, P-gp (Mus musculus, UniProt P21447); assay: Potential for drug-drug interactions through P-gp in vivo (Kp with/without cyclosporin A); settings: mice, Kp with versus without cyclosporin A (20 mg/kg)
T1 construct: effectively excreted through P-gp from the brain to vessels; from tissue; host or cells: brain / blood-brain barrier of living C57BL/6J mice
T1 sequence (P21447 whole entry): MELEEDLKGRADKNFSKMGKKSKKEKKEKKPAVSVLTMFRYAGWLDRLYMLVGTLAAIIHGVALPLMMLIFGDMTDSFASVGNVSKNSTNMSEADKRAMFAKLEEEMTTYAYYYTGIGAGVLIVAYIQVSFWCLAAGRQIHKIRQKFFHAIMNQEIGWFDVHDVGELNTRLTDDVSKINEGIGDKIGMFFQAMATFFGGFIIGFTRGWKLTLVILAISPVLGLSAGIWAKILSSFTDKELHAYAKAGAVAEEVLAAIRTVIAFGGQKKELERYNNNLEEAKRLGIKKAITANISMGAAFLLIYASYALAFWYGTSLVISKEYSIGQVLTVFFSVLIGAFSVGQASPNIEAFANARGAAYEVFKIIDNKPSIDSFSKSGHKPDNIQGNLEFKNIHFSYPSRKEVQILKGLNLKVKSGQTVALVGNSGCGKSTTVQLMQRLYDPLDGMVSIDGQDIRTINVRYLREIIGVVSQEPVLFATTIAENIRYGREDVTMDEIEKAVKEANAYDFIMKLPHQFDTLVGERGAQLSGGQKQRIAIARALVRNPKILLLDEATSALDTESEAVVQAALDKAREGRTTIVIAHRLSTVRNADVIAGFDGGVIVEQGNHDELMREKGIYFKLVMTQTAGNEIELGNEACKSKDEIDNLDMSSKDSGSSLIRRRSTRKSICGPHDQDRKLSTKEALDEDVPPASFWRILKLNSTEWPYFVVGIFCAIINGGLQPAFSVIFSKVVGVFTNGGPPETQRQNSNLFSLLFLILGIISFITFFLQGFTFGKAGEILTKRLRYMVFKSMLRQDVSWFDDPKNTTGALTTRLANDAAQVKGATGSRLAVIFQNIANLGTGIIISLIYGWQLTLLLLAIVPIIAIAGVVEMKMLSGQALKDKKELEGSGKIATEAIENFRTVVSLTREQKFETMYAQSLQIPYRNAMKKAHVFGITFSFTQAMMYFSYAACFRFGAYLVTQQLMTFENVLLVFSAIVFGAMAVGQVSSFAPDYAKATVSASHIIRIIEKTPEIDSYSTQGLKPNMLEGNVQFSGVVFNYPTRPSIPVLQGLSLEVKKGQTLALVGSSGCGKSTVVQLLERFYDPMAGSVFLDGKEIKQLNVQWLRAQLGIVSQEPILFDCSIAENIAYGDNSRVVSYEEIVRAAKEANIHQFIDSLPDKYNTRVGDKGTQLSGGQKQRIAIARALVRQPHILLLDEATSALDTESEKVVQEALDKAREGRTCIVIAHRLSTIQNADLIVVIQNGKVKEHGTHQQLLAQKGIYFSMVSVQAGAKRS
Protocol: To examine the potential for drug-drug interactions through P-gp in vivo, the Kp values of compounds of this invention with (KpCSA) or without (KpCont.) cyclosporin A (20 mg/kg), a P-gp inhibitor, were calculated. The KpCSA value of Compound (I-72) was 1.14, and the calculated KpCSA KpCont. ratio was 0.9.
On the other hand the potential for drug-drug interactions through P-pg of amide compound B which has similar structure of Compound (1-72) was also examined in mice. The KpCont. and KpCSA were 0.04 and 0.84, respectively.

mouse NPY Y5 receptor = biological target: T2, mouse NPY Y5 receptor (Mus musculus, UniProt O70342); assay: Affinity for mouse NPY Y5 receptor ([125I] peptide YY binding, CHO cell membranes); settings: CHO membranes expressing mouse NPY Y5 receptor, [125I] peptide YY 60 pM
T2 construct: expressed in transfected cells
T2 sequence (O70342 1-466): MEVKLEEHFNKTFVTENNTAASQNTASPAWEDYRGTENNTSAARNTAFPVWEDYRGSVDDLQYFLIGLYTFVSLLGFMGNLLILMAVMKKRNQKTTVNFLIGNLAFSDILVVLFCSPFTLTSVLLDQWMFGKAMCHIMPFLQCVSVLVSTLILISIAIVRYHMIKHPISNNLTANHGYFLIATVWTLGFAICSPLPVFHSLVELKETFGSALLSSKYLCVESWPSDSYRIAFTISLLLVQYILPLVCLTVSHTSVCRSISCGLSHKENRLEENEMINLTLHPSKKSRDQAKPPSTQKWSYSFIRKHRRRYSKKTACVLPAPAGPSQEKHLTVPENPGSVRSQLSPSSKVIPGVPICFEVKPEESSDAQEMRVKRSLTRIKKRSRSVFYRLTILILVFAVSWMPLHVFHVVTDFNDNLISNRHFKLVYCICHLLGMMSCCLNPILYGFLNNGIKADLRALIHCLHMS
From the text: cDNA sequence encoding a mouse NPY Y5 receptor (Biochim. Biophys. Acta 1328:83-89, 1997) was cloned in a vector (pME18S, Takebe et al. Mol. Cell. Biol. 8, 466-472). The obtained expression vector was transfected into CHO cells as a host by using Lipofect AMINE reagent (Trademark, Gico BRL Co., Ltd.) according to the instruction manual. The cells that stably express mouse NPY Y5 receptor were obtained.
The membranes prepared from the CHO cells expressing mouse NPY Y5 receptor, the compound of this invention and 30,000 cpm [^125I] peptide YY (60 pM of final concentration: Amersham) were incubated in the assay buffer (20 mM HEPES-Hanks buffer containing 0.1% bovine serum albumin, pH 7.4) at 25° C. for 2 hours, and then the membrane was filtered from the mixture through a glassfilter (GF/C) presoaked with 1% polyethyleneimine. After washing with 50 mM Tris-HCl buffer (pH 7.4), radioactivity retained on the filters was quantified with a gamma counter.
Nonspecific binding was defined as the amount of radioactivity bound to the membranes after incubation in the presence of 200 nM of peptide YY. The 50% inhibitory concentration of the test compound against the specific peptide YY binding (IC50 value) was calculated (Inui, A. et al. Endocrinology 131, 2090-2096 (1992)).

NPY Y5 receptor = biological target: T3, NPY Y5 receptor (Mus musculus, UniProt O70342); assay: Inhibition of Y5 agonist-induced food intake in mice; assay type: in vivo, C57BL/6J mice; settings: 4 hours after dosing
T3 construct: from tissue; host or cells: brain of living male C57BL/6J mice
T3 sequence (O70342 1-466): T2 sequence (O70342 1-466)
Protocol: Under diethylether anesthesia the skull of male C57BL/6J mice (12-14 week old, 25-30 g) was exposed by making an incision about 1-cm long from external occipital crest to nasal dorsum, and then drilled in the 1-mm lateral position to the left following 1-mm posterior from bregma. After recovery from anesthesia mice were dosed with either 0.5% hydroxypropylmethyl cellulose solution (vehicle, Shin-Etsu Chemical Co., Ltd) or the compounds of this invention suspended in the 0.5% hydroxypropylmethyl cellulose solution. At one hour after the treatment, each animal received saline or a NPY Y5 receptor specific agonist, [cPP^1-7, NPY^19-23, Ala^31, Aib^32, Gln^34]-hPancreatic Polypeptide (0.1 nmol/1.5 μL saline/mouse) through the skull opening using a canula. Residual food was measured at 2 and 4 hours after the treatment. The inhibition ratio of Y5 agonist-induced food intake by the compounds was calculated as follows; inhibition ratio (%)=[1−(food intake (g) by the compound treated and Y5 agonist received mice−food intake (g) by the vehicle treated and saline received mice)/(food intake (g) by the vehicle treated and Y5 agonist received mice−food intake (g) by the vehicle treated and saline received mice)]×100.

[1] = Suppression of body weight gain in high-fat diet-induced obese mice; assay type: in vivo, C57BL/6J mice; settings: 6 mg/kg b.i.d. for 3 weeks, versus vehicle
Protocol: Prior to administration of the compounds of this invention, male C57BL/6J mice were given a high-fat diet to induce obese. The high-fat diet-induced obese mice (13-14 week old, body weight 28-33 g) were dosed with 0.5% hydroxypropylmethyl cellulose solution (vehicle, Shin-Etsu Chemical Co., Ltd) or the compounds of this invention suspended in the 0.5% hydroxypropylmethyl cellulose solution twice a day (b.i.d.) for 3 weeks with the same diet. The changes in body weight were monitored daily.

[2] = rows without asterisk (6 mg/kg per text)

Row | SMILES | IC50 (mouse NPY Y5 receptor) [nM] | Inhibition ratio of Y5 agonist-induced food intake (NPY Y5 receptor; [2]) [%] | further results
1 | C[C@@H]1CN(c2ccc(NC(=O)[C@H]3CC[C@H](NS(=O)(=O)C(C)(C)C)CC3)cc2)C[C@H](C)O1 [B, reference compound] |  |  | KpCSA/KpCont. ratio (P-gp): 20.5
2 | CC(C)S(=O)(=O)NC[C@H]1CC[C@H](Nc2nc3ccc(F)cc3o2)CC1 [Ij-156] | 0.68 |  | Inhibition ratio of Y5 agonist-induced food intake (NPY Y5 receptor; **Dose: 12.5 mg/kg): 90.4%**
3 | CC(C)S(=O)(=O)NC[C@H]1CC[C@H](Nc2ccc(OC3CCCC3)nn2)CC1 [Ij-52] | 0.99 |  | 
4 | CCC(C)S(=O)(=O)NC[C@H]1CC[C@H](Nc2nc3ccc(F)cc3o2)CC1 (stereo partly shown) [Ij-161] | 0.69 |  | Inhibition ratio of Y5 agonist-induced food intake (NPY Y5 receptor; *Dose: 1.5 mg/kg): 15.8%*
5 | CCC(C)S(=O)(=O)NC[C@H]1CC[C@H](Nc2nc3cc(F)ccc3o2)CC1 (stereo partly shown) [Ij-160] | 0.55 |  | Inhibition ratio of Y5 agonist-induced food intake (NPY Y5 receptor; *Dose: 1.5 mg/kg): 36.6%*
6 | CC(C)(C)S(=O)(=O)NC[C@H]1CC[C@H](Nc2ccc3ccccc3n2)CC1 [Ij-59] | 2.5 |  | 
7 | CC(C)S(=O)(=O)NC[C@H]1CC[C@H](Nc2nc3cc(Cl)ccc3s2)CC1 [Ij-154] | 0.17 | 81.3 | 
8 | CC(C)(C)S(=O)(=O)NC[C@H]1CC[C@H](Nc2ccn(-c3ccccc3F)n2)CC1 [Ij-110] |  | 90.3 | 
9 | C[C@@H]1CN(c2ccc(NC[C@H]3CC[C@H](NS(=O)(=O)C(C)(C)C)CC3)cc2)C[C@H](C)O1 [Compound I-72] |  |  | KpCSA/KpCont. ratio (P-gp): 0.9
10 | CC1CC(C)CN(c2cccc(NC[C@H]3CC[C@H](NS(=O)(=O)C(C)(C)C)CC3)c2)C1 (stereo partly shown) [Ii-1] | 0.1 |  | 
11 | CCS(=O)(=O)NC[C@H]1CC[C@H](Nc2nc3ccccc3s2)CC1 [Ij-149] | 0.92 | 62.6 | 
12 | CCS(=O)(=O)N[C@H]1CC[C@H](CNc2ccc(S(=O)(=O)c3ccc(F)cc3)cc2)CC1 [Ii-34] | 11 |  | 
13 | CC(C)S(=O)(=O)NC[C@H]1CC[C@H](Nc2nc3cc(F)ccc3s2)CC1 [Ij-151] | 0.12 |  | Inhibition ratio of Y5 agonist-induced food intake (NPY Y5 receptor; *Dose: 1.5 mg/kg): 78.4%*
14 | CC(C)S(=O)(=O)NC[C@H]1CC[C@H](Nc2ccn(-c3ccccc3Cl)n2)CC1 [Ij-157] | 0.16 |  | 
15 | CC(C)S(=O)(=O)N[C@H]1CC[C@H](CNc2cc(F)cc(N3CCOCC3)c2)CC1 [Ii-55] |  | 64.3 | 
16 | CCS(=O)(=O)NC[C@H]1CC[C@H](Nc2ccn(-c3ccccc3F)n2)CC1 [Ij-112] |  |  | Body weight gain [1]: suppresses Body Weight Gain
17 | Cn1c(=O)oc2cc(NC[C@H]3CC[C@H](NS(=O)(=O)C(C)(C)C)CC3)cc(F)c21 [Ii-45] |  | 76.2 | Body weight gain [1]: suppresses Body Weight Gain
18 | CC(C)S(=O)(=O)NC[C@H]1CC[C@H](Nc2nc3cccc(F)c3s2)CC1 [Ij-153] | 0.12 | 73.0 | 
19 | CC(C)S(=O)(=O)NC[C@H]1CC[C@H](Nc2ccc(C(F)(F)F)cn2)CC1 [Ij-1] | 0.7 |  | 
20 | CCS(=O)(=O)NC[C@H]1CC[C@H](Nc2nc3ccccc3o2)CC1 [Ij-150] | 4.66 | 25.3 | 
21 | CC(C)(C)S(=O)(=O)NC[C@H]1CC[C@H](Nc2nc3cc(F)ccc3o2)CC1 [Ij-158] | 0.85 | 70.5 | 
22 | CC(C)(C)S(=O)(=O)NC[C@H]1CC[C@H](Nc2nc3ccc(F)cc3o2)CC1 [Ij-159] | 0.6 | 83.2 | 
23 | CC(C)(C)S(=O)(=O)NC[C@H]1CC[C@H](Nc2nc3ccc(C(F)(F)F)cc3s2)CC1 [Ij-66] | 0.39 |  | 
24 | CC(C)S(=O)(=O)NC[C@H]1CC[C@H](Nc2nc3cc(F)ccc3o2)CC1 [Ij-155] | 0.88 |  | Inhibition ratio of Y5 agonist-induced food intake (NPY Y5 receptor; *Dose: 1.5 mg/kg): 56.1%*
25 | CCCn1c(=O)oc2cc(NC[C@H]3CC[C@H](NS(=O)(=O)CC)CC3)ccc21 [Ii-16] | 1.2 |  | 
26 | CCS(=O)(=O)NC[C@H]1CC[C@H](Nc2ccc(-c3ccccc3)cn2)CC1 [Ij-4] |  | 88.2 | 
27 | CC(C)S(=O)(=O)NC[C@H]1CC[C@H](Nc2nc3ccc(F)cc3s2)CC1 [Ij-152] | 0.35 |  | Inhibition ratio of Y5 agonist-induced food intake (NPY Y5 receptor; *Dose: 1.5 mg/kg): 62.6%*
